In paper PMC8308740 (Pharmaceuticals, 2021):
“And” between values parts separate entries of the source, which are not always exact repeats. Identical values can stand only once. “Also recorded” adds a separate entry of the source. Like-named read-outs stand apart in the source and are kept apart here.

T1: hDHFR (Homo sapiens, UniProt P00374)
T1 construct: His tag; made in house; host or cells: E. coli
T1 sequence (P00374 1-187): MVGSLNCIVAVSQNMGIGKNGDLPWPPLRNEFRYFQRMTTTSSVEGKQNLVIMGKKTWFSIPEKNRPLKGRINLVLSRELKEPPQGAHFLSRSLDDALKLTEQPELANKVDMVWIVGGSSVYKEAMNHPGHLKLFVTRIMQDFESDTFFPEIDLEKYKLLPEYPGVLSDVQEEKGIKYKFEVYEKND

T2: TbPTR1 (Trypanosoma brucei brucei, UniProt O76290)
T2 construct: His tag; made in house; host or cells: E. coli
T2 sequence (O76290 1-268): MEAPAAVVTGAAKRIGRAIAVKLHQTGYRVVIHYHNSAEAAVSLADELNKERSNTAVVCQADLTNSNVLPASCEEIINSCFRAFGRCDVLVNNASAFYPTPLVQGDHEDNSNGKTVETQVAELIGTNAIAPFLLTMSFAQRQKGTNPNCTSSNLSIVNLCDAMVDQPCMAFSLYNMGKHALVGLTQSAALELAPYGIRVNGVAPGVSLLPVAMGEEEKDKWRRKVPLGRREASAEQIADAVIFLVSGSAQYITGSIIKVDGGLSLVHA

B1: Trypanosoma brucei pteridine reductase 1 (enzyme)
chain: T2 sequence (O76290 1-268)
notes: pteridine reductase 1 (PTR1) of Trypanosoma brucei, recombinant; also called TbPTR1; PTR1; source: E. coli, histidine-tagged, purified following established protocols

Key:
[1] = target: T1, hDHFR; assay: hDHFR spectrophotometric enzyme inhibition assay; type: biochemical; settings: TES buffer pH 7.4, 50 µM H2FA; spread from CI95 of fitting
Method: (§1) Recombinant TbPTR1, TbDHFR-TS, and hDHFR were expressed in E. coli as histidine-tagged proteins and purified following established protocols. Purified recombinant enzymes were stored in stock solutions having concentrations of 0.93 mg/mL, 0.53 mg/mL, and 0.88 mg/mL, for TbPTR1, TbDHFR-TS, and hDHFR, respectively. A direct spectrophotometric kinetic test was used to evaluate the inhibitory activity of the compound library. A Jasco-V730 double beam spectrophotometer (Jasco Europe) was employed to perform the assays. Fixed final concentrations of purified TbPTR1, TbDHFR-TS, and hDHFR (15 nM, 55 nM, and 15 nM respectively) were incubated in semi-micro plastic cuvettes (Brand, Tech Scientific, Essex, UK) with 400 µL of sodium citrate buffer at pH = 3.7 and TES buffer (100 mM TES, 50 mM MgCl2, 13 mM CH2O, 2 mM EDTA, 150 mM 2-mercaptoethanol, pH 7.4), plus 25 µM 7,8-dihydro-L-biopterin (H2B, Sigma Aldrich) for TbPTR1 and 50 µM of 7,8-dihydrofolic acid (H2FA, Sigma Aldrich) for TbDHFR-TS and hDHFR enzymes.
(§2) Residual NADP(H) absorption (λmax = 340 nm), converted to NADP^+ as cofactor, was monitored for 180 s of the ongoing reaction and its Δ(OD)/min was registered for v(0) slope at 22.4 °C. Each inhibition assay was performed in triplicate, and five to six different concentrations of compounds were tested to assess their relative IC50.
(§3) The equation used to interpolate points was y = y(min) + (y(max) − y(min))/(1 + (IC50/x)^^HillSlope), where HillSlope was constrained at −1 (standard Michaelis–Menten behaviour for competitive inhibitors), from which IC50 were extrapolated. Standard deviations—as reported in Table 1—were obtained from 95% confidence interval (CI95) of fitting.

[2] = target: T2, TbPTR1; assay: biochemical; type: biochemical; settings: for Selectivity IC50 TbDHFR-TS /IC50 TbPTR1: ratio, for PYR and CYC calculated assuming a competitive inhibition mechanism; for IC50: recombinant enzyme, citrate buffer pH 3.7, 25 µM H2B, spread from CI95 of fitting; for fold improvement of inhibitory activity against TbPTR1 relative to CYC: versus CYC IC50
Method: as §1, §2, §3

[3] = target: T3, TbDHFR-TS (Trypanosoma brucei brucei, UniProt Q27783); assay: biochemical; type: biochemical; settings: for Selectivity IC50 hDHFR /IC50 TbDHFR-TS: ratio, PYR and CYC from Ki values
T3 construct: His tag; made in house; host or cells: E. coli
Method: as §1, §2, §3

[4] = Stability of compound 6 in solution at different pH (HPLC-ELSD); type: physicochemical; settings: pH 10.5, 7 and 3.7, room temperature, overnight / 30 h
Method: Although it was unusual, we suspected the potential hydrolysis of the acetamido group to generate an amine and acetic acid. Therefore, we tested the compound stability at pH 10.5, 7, and 3.7 overnight at room temperature.
We have studied the stability of the CYC-like compound 6 to test the hydrolysis of the N-acetyl group in different pH buffers and to screen its putative prodrug action. We prepared three 10 µM solutions from a 100 µM DMSO stock of compound 6 in double deionized water, at pH 10.5 with NaOH, and in citrate buffer, pH 3.7, used for kinetic assays with TbPTR1. We have monitored the purity of these solutions with HPLC–ELSD just after compound dilutions. A volume of 7 µL of each solution was immediately injected in an HPLC Atlantis dC18, 150 × 3.9 mm, 3 µm ID column (Waters Corp, Milford, MA, US) coupled to an ELSD detector (Agilent 1260 Infinity II system). Compounds were eluted with 0.1% formic acid in water (A) and pure acetonitrile (B), gradient 10% to 50% B for 10 min, at 0.5 mL min^−1, room temperature. Detector parameters were set as follows: Neb = 30 °C, Evap = 40 °C, N2 flow = 1.6 SLM, smoothing = 3.0 s. […] Compound stability also was evaluated with 1H-NMR, obtaining the same results. We thus concluded that compound 6 is not susceptible to pH mediated hydrolysis, and acts as a TbPTR1 inhibitor as N-acetylated compounds.

[5] = target: T2, TbPTR1; settings: read-out: TbPTR1 IC50; cited from earlier work
[6] = target: the molecule itself; assay: crystal structure; TbPTR1 crystals by hanging drop vapour diffusion at room temperature, 2-2.5 M sodium acetate, 0.1 M sodium citrate pH 5; soaked with 3 mM PYR; space group P21 with a functional tetramer in the asymmetric unit; NADP(H) bound
[7] = TES buffer pH 7.4, 50 µM H2FA, spread from CI95 of fitting, read-out: TbDHFR-TS (IC50 µM)

T3 sequence (Q27783 whole entry): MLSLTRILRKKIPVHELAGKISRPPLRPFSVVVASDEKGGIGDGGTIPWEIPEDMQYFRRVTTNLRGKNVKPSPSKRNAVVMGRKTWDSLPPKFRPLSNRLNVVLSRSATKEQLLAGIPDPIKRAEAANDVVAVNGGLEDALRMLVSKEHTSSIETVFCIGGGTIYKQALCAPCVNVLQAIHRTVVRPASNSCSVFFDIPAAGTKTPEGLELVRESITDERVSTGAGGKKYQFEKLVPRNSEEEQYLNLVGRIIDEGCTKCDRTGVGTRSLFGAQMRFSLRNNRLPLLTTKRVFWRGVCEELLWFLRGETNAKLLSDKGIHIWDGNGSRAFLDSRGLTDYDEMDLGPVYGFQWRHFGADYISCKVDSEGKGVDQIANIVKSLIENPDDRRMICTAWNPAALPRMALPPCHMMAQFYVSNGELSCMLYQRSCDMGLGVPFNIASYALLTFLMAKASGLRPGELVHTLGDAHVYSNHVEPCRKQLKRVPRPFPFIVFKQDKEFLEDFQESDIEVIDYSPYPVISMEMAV

Row | Molecule | IC50 [1] | Selectivity IC50 TbDHFR-TS /IC50 TbPTR1 [2] | IC50 [2] | fold improvement of inhibitory activity against TbPTR1 relative to CYC [2] | IC50 [3, 7] | Selectivity IC50 hDHFR /IC50 TbDHFR-TS [3] | IC50 [3] | compound stability (hydrolysis of N-acetyl group), HPLC analysis [4] | IC50 [5] | stoichiometry N [6]
1 | NC1=NC2(CCCCC2)N(c2ccc(Cl)cc2)C(N)=N1 [Compound 3] | 65.6 µM | 14.4 | 1.22 µM | 30 fold | 17.6 µM | 3.73 |  |  |  | 
2 | CC1N=C(N)N=C(N)N1c1ccc(Cl)cc1 (stereo not shown) [Compound 1] | 337 µM | 16.9 | 6.02 µM |  |  | 3.27 | 103 µM |  |  | 
3 | COc1ccc(N2C(N)=NC(NC(C)=O)=NC2(C)C)cc1 [Compound 6, N-[6-amino-5-(4-methoxyphenyl)-4,4-dimethyl-4,5-dihydrotriazin-2-yl]acetamide] | 62.5 µM | 22.8 | 0.83 µM |  | 18.9 µM | 3.31 |  | fully stable; also recorded: no changes in chromatograms were detected |  | 
4 | CC1(C)N=C(N)N=C(N)N1c1ccc(Cl)cc1 [CYC, cycloguanil] |  |  |  |  |  |  |  |  | 31.6 µM | 
5 | COc1ccc(N2C(N)=NC(N)=NC2(C)C)cc1 [Compound 5, 1-(4-methoxyphenyl)-6,6-dimethyl-1,6-dihydro-1,3,5-triazine-2,4-diamine] | 413 µM | 49.6 | 0.67 µM | 46 fold | 33.2 µM | 12.4 |  |  |  | 
6 | CC1(C)N=C(N)N=C(N)N1c1ccc(Cl)c(Cl)c1 [Compound 1a] |  |  |  |  |  |  |  |  | 0.692 µM | 
7 | CC1(C)N=C(N)N=C(N)N1c1ccc(O)cc1 [Compound 4] | 284 µM | 21.7 | 4.1 µM |  | 89 µM | 3.19 |  |  |  | 
8 | NC1=NC(c2ccc([N+](=O)[O-])cc2)N(c2ccc(Cl)c(Cl)c2)C(N)=N1 (stereo not shown) [Compound 2a] |  |  |  |  |  |  |  |  | 0.186 µM | 
9 | CCCC1N=C(N)N=C(N)N1c1ccc(Cl)cc1 (stereo not shown) [Compound 2] | 66.7 µM | 0.26 | 27.5 µM |  |  | 9.2 and 9.19 | 7.26 µM |  |  | 
10 | B1 |  |  |  |  |  |  |  |  |  | 4
